Test results from patent US20050074879A1, “Antisense oligonucleotide modulation of STAT3 expression” (priority 2000, published 2005).
Oligonucleotides are written 5' to 3', each unit as a sugar letter and its base; * is a phosphorothioate linkage, no mark a phosphodiester; rarer units and linkages stand in square brackets, end groups in braces. Plain capitals give the bases only. e = 2'-O-(2-methoxyethyl) (MOE); [5mC] = 5-methylcytosine; d = 2'-deoxy (DNA)

System: Human STAT3 mRNA
Assay: Inhibition of human STAT3 mRNA levels in A549 cells, 75 nM, real-time PCR (Table 13)
Format: cell-based
Details: 75 nM oligonucleotide with LIPOFECTIN, real-time PCR PPS 199, percent inhibition relative to untreated control cells, average of 2 experiments
Method: Oligonucleotide activity is assayed by quantitation of STAT3 mRNA levels by real-time PCR (RT-PCR) using the ABI PRISMS 7700 Sequence Detection System (PE-Applied Biosystems, Foster City, Calif.) according to manufacturer's instructions. This is a closed-tube, non-gel-based, fluorescence detection system which allows high-throughput quantitation of polymerase chain reaction (PCR) products in real-time. As opposed to standard PCR, in which amplification products are quantitated after the PCR is completed, products in RT-PCR are quantitated as they accumulate. This is accomplished by including in the PCR reaction an oligonucleotide probe that anneals specifically between the forward and reverse PCR primers, and contains two fluorescent dyes. A reporter dye (e.g., JOE or FAM, PE-Applied Biosystems, Foster City, Calif.) is attached to the 5′ end of the probe and a quencher dye (e.g., TAMRA, PE-Applied Biosystems, Foster City, Calif.) is attached to the 3′ end of the probe. When the probe and dyes are intact, reporter dye emission is quenched by the proximity of the 3′ quencher dye. During amplification, annealing of the probe to the target sequence creates a substrate that can be cleaved by the 5′-exonuclease activity of Taq polymerase. […] With each cycle, additional reporter dye molecules are cleaved from their respective probes, and the fluorescence intensity is monitored at regular (six-second) intervals by laser optics built into the ABI PRISM™ 7700 Sequence Detection System. In each assay, a series of parallel reactions containing serial dilutions of mRNA from untreated control samples generates a standard curve that is used to quantitate the percent inhibition after antisense oligonucleotide treatment of test samples.
RT-PCR reagents are obtained from PE-Applied Biosystems, Foster City, Calif. RT-PCR reactions are carried out by adding 25 l PCR cocktail (1× TAQMAN7 buffer A, 5.5 mM MgCl2, 300 µM each of DATP, dCTP and dGTP, 600 µM of dUTP, 100 nM each of forward primer, reverse primer, and probe, 20 U RNAse inhibitor, 1.25 units AMPLITAQ GOLD7, and 12.5 U MuLV reverse transcriptase) to 96 well plates containing 25 l poly(A) mRNA solution. The RT reaction is carried out by incubation for 30 minutes at 48° C. following a 10 minute incubation at 95° C. to activate the AMPLITAQ GOLD7, 40 cycles of a two-step PCR protocol are carried out: 95° C. for 15 seconds (denaturation) followed by 60° C. for 1.5 minutes (annealing/extension).
The compounds were analyzed for their effect on STAT3 mRNA levels in A549 cells. The human lung carcinoma cell line A549 was obtained from the American Type Culture Collection (ATCC) (Manassas, Va.). A549 cells were routinely cultured in DMEM basal media (Invitrogen Corporation, Carlsbad, Calif.) supplemented with 10% fetal calf serum (Invitrogen Corporation, Carlsbad, Calif.), 100 units/mL penicillin, and 100 ug/mL streptomycin (Invitrogen Corporation, Carlsbad, Calif.). Cells were routinely passaged by trypsinization and dilution when they reached 90% confluence.
When cells reached 65-75% confluency, they were treated with oligonucleotide. For cells grown in 96-well plates, wells were washed once with […] OPTI-MEM-1 reduced-serum medium (Invitrogen Corporation, Carlsbad, Calif.) and then treated with 130 µL of OPTI-MEM-1 containing […] LIPOFECTIN (Invitrogen Corporation, Carlsbad, Calif.) and 75 nM of the compounds in Table 13. Cells were treated and data were obtained in duplicate. Untreated cells served as controls. After 4-7 hours of treatment at 37° C., the medium was replaced with fresh medium. Cells were harvested 16-24 hours after oligonucleotide treatment. STAT3 mRNA levels in A549 cells were quantitated by real-time PCR as described by other methods herein.
Probes and primers to human STAT3 were designed to hybridize to a human STAT3 sequence, using published sequence information (incorporated herein as SEQ ID NO: 1). For STAT 3 the PCR primers were: • forward primer: […]

Substance	% Inhib (inhibition of human STAT 3 mRNA levels) [%]
337253 (antisense eA*eA*eA*eT*eG*d[5mC]*dG*dG*dA*d[5mC]*d[5mC]*d[5mC]*dA*dA*dG*eA*eG*eT*eT*eT) [compound 337253]	49
337328 (antisense e[5mC]*eA*eT*eG*eT*dG*dA*dT*d[5mC]*dT*dG*dA*d[5mC]*dA*d[5mC]*e[5mC]*e[5mC]*eT*eG*eA) [compound 337328]	85
337264 (antisense e[5mC]*eG*e[5mC]*eA*eT*dA*dT*dG*d[5mC]*d[5mC]*d[5mC]*dA*dA*dT*d[5mC]*eT*eT*eG*eA*e[5mC]) [compound 337264]	81
337363 (antisense eA*eA*e[5mC]*eT*eG*d[5mC]*d[5mC]*d[5mC]*dT*d[5mC]*d[5mC]*dT*dG*d[5mC]*dT*eG*eA*eG*eG*eG) [compound 337363]	63
337326 (antisense eG*eT*e[5mC]*eA*eG*d[5mC]*dT*dG*d[5mC]*dT*d[5mC]*dG*dA*dT*dG*e[5mC]*eT*e[5mC]*eA*eG) [compound 337326]	78
337355 (antisense eA*eT*eT*eG*e[5mC]*dT*dG*d[5mC]*dA*dG*dG*dT*d[5mC]*dG*dT*eT*eG*eG*eT*eG) [compound 337355]	61
337319 (antisense eA*eA*eG*eG*eA*dG*dT*dG*dG*dG*dT*d[5mC]*dT*d[5mC]*dT*eA*eG*eG*eT*e[5mC]) [compound 337319]	38
337274 (antisense eT*eG*eA*eA*eG*dG*dT*dG*d[5mC]*dT*dG*d[5mC]*dT*d[5mC]*d[5mC]*eA*eG*e[5mC]*eA*eT) [compound 337274]	74
337365 (antisense e[5mC]*eA*eG*eT*e[5mC]*dG*dT*dA*dT*d[5mC]*dT*dT*dT*d[5mC]*dT*eG*e[5mC]*eA*eG*e[5mC]) [compound 337365]	84
337373 (antisense e[5mC]*eA*e[5mC]*eA*eT*d[5mC]*d[5mC]*d[5mC]*d[5mC]*dT*dG*dA*dT*d[5mC]*dA*eT*eG*eG*eG*eT) [compound 337373]	70
337287 (antisense eT*eG*eG*eT*eT*dG*dT*dT*dT*d[5mC]*d[5mC]*dA*dT*dT*d[5mC]*eA*eG*eA*eT*e[5mC]) [compound 337287]	82
337309 (antisense eA*eG*eA*eG*eG*d[5mC]*dT*dG*d[5mC]*d[5mC]*dG*dT*dT*dG*dT*eT*eG*eG*eA*eT) [compound 337309]	73
337286 (antisense eA*eT*eT*e[5mC]*eA*dG*dA*dT*d[5mC]*dT*dT*dG*d[5mC]*dA*dT*eG*eT*e[5mC]*eT*e[5mC]) [compound 337286]	77
337331 (antisense e[5mC]*e[5mC]*eT*eT*eG*d[5mC]*d[5mC]*dA*dG*d[5mC]*d[5mC]*dA*dT*dG*dT*eT*eT*eT*e[5mC]*eT) [compound 337331]	88
337252 (antisense e[5mC]*eT*eG*eA*eA*d[5mC]*dT*dT*dA*d[5mC]*d[5mC]*d[5mC]*dT*d[5mC]*dT*eG*eA*eG*eA*eG) [compound 337252]	60
337261 (antisense eT*eG*eT*e[5mC]*eA*dA*dG*d[5mC]*dT*dG*d[5mC]*dT*dG*dT*dA*eG*e[5mC]*eT*eG*eA) [compound 337261]	79
337312 (antisense eA*eT*e[5mC]*eA*eG*dG*dT*dG*d[5mC]*dA*dG*d[5mC]*dT*d[5mC]*d[5mC]*eT*e[5mC]*eA*eG*eT) [compound 337312]	78

Substance	% Inhib (inhibition of human STAT 3 mRNA levels) [%]
337325 (antisense eT*eT*e[5mC]*eT*eT*dG*dG*dG*dA*dT*dT*dG*dT*dT*dG*eG*eT*e[5mC]*eA*eG) [compound 337325]	75
337339 (antisense eA*eG*e[5mC]*eA*eA*dA*dT*dG*dA*d[5mC]*dA*dT*dG*dT*dT*eG*eT*eT*e[5mC]*eA) [compound 337339]	84
337277 (antisense eA*eA*eG*eT*e[5mC]*dA*dT*d[5mC]*d[5mC]*dT*dG*dG*dA*dG*dA*eT*eT*e[5mC]*eT*e[5mC]) [compound 337277]	79
337306 (antisense eG*e[5mC]*eA*e[5mC]*eA*d[5mC]*dT*dT*dT*dA*dA*dT*dT*dT*dT*eA*eA*eG*e[5mC]*eT) [compound 337306]	77
337317 (antisense e[5mC]*eT*eA*eG*eG*dT*d[5mC]*dA*dA*dT*d[5mC]*dT*dT*dG*dA*eG*eG*e[5mC]*e[5mC]*eT) [compound 337317]	55
337310 (antisense eA*eA*eG*eT*eG*dT*dT*dT*dG*dA*dA*dT*dT*d[5mC]*dT*eG*e[5mC]*eA*eG*eA) [compound 337310]	73
337297 (antisense eA*e[5mC]*eG*eT*eT*dA*dT*d[5mC]*d[5mC]*dA*dG*dT*dT*dT*dT*e[5mC]*eT*eA*eG*e[5mC]) [compound 337297]	72
337271 (antisense eG*eT*eG*eA*eT*dT*d[5mC]*dT*dT*d[5mC]*d[5mC]*d[5mC]*dA*d[5mC]*dA*eG*eG*e[5mC]*eA*e[5mC]) [compound 337271]	85
337290 (antisense eG*eA*eG*e[5mC]*eA*dT*d[5mC]*dT*dG*dT*dT*d[5mC]*d[5mC]*dA*dG*e[5mC]*eT*eG*e[5mC]*eT) [compound 337290]	80
337352 (antisense eA*eT*eA*eA*eA*d[5mC]*dT*dT*dG*dG*dT*d[5mC]*dT*dT*d[5mC]*eA*eG*eG*eT*eA) [compound 337352]	80
337382 (antisense eG*eG*e[5mC]*eT*eT*dA*dG*dA*dT*dA*dG*dT*d[5mC]*d[5mC]*dT*eA*eT*e[5mC]*eT*eT) [compound 337382]	84
337378 (antisense eA*eG*eG*eT*eG*dG*d[5mC]*d[5mC]*dT*dG*dT*dG*dG*d[5mC]*dA*eT*eT*eT*eG*e[5mC]) [compound 337378]	16
337345 (antisense eG*eG*eT*eA*eG*d[5mC]*dA*dT*d[5mC]*d[5mC]*dA*dT*dG*dA*dT*e[5mC]*eT*eT*eA*eT) [compound 337345]	86
337342 (antisense eT*eT*eA*eT*eA*dG*d[5mC]*d[5mC]*d[5mC]*dA*dT*dG*dA*dT*dG*eA*eT*eT*eT*e[5mC]) [compound 337342]	81
337248 (antisense eT*eA*eT*eT*eG*dA*dA*dA*dA*dT*dT*dA*dT*d[5mC]*dT*eA*eA*eT*eT*e[5mC]) [compound 337248]	0
337375 (antisense eA*e[5mC]*e[5mC]*eA*eG*dG*dA*dG*dG*d[5mC]*dA*d[5mC]*dT*dT*dG*eT*e[5mC]*eT*eA*eA) [compound 337375]	89
337350 (antisense eG*eA*e[5mC]*eA*eA*dT*dA*d[5mC]*dT*dT*dT*d[5mC]*d[5mC]*dG*dA*eA*eT*eG*e[5mC]*e[5mC]) [compound 337350]	84
